Laboratory results taken from patent US20140243334A1, “SUBSTITUTED HYDOXAMIC ACIDS AND USES THEREOF” (Millennium Pharmaceuticals, Inc., priority 2010, published 2014).

Target: T1, purified human HDAC6 (Homo sapiens, UniProt Q9UBN7)
T1 construct: purchased BPS Bioscience 5006
T1 sequence (Q9UBN7 1-1215): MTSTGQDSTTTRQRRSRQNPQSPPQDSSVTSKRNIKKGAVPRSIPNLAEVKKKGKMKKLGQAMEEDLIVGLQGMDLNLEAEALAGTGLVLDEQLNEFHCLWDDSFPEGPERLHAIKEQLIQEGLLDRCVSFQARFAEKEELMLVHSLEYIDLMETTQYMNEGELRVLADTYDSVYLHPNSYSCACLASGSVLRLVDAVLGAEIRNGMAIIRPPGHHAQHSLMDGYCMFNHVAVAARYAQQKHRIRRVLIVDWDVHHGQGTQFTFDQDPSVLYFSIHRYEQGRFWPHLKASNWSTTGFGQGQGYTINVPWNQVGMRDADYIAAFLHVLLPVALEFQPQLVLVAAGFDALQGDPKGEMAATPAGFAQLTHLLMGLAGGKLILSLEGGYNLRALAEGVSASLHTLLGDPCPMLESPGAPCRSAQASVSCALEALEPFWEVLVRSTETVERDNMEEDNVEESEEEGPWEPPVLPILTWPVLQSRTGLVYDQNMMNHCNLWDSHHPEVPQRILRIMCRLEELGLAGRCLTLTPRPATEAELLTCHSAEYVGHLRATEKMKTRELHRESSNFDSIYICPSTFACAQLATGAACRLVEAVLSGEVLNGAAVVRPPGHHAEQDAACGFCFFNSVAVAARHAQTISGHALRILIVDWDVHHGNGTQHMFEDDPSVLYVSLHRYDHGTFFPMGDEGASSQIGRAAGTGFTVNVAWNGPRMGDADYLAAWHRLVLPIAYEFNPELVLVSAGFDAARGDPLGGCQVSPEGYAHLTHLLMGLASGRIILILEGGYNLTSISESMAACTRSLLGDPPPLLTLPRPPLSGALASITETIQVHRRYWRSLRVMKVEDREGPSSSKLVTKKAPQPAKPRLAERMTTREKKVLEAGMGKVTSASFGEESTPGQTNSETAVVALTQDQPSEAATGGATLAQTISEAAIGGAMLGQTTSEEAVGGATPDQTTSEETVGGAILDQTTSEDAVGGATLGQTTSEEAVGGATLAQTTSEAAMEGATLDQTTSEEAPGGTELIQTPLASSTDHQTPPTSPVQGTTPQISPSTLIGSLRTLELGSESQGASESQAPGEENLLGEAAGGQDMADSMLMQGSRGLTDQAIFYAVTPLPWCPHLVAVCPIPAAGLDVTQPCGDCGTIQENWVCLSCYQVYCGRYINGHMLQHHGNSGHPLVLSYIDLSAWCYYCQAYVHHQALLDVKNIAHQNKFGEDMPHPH
Assay: HDAC6 Enzyme Assay
Format: biochemical
Conditions: HDAC6 inhibition at a compound concentration of 0.412 μM; read-out: Percent Inhibition at 0.412 μM
Protocol: To measure the inhibition of HDAC6 activity, purified human HDAC6 (BPS Bioscience; Cat. No. 5006) is incubated with substrate Ac-Arg-Gly-Lys(Ac)-AMC peptide (Bachem Biosciences; Cat. No. I-1925) for 1 hour at 30° C. in the presence of test compounds or vehicle DMSO control. The reaction is stopped with the HDAC inhibitor trichostatin A (Sigma; Cat. No. T8552) and the amount of Arg-Gly-Lys-AMC generated is quantitated by digestion with trypsin (Sigma; Cat. No. T1426) and subsequent measurement of the amount of AMC released using a fluorescent plate reader (Pherastar; BMG Technologies) set at Ex 340 nm and Em 460 nm. Concentration response curves are generated by calculating the fluorescence increase in test compound-treated samples relative to DMSO-treated controls, and enzyme inhibition (IC50) values are determined from those curves.

Compound	inhibition at 0.412 µM
COc1ccc2c(c1)CC(C(=O)NO)CC2 (centres unmarked) [Compound I-1, N-hydroxy-7-methoxy-1,2,3,4-tetrahydronaphthalene-2-carboxamide]	8%
O=C(Nc1cc(Oc2ccc3c(c2)C[C@@H](C(=O)NO)CC3)ccn1)C1CC1 [Compound I-2, (2S)-7-({2-[(cyclopropylcarbonyl)amino]pyridin-4-yl}oxy)-N-hydroxy-1,2,3,4-tetrahydronaphthalene-2-carboxamide]	90%
O=C(NO)C1CCc2ccccc2C1 (centres unmarked) [Compound I-3, N-hydroxy-1,2,3,4-tetrahydronaphthalene-2-carboxamide]	33%
O=C1CCc2c(Oc3ccc4c(c3)C[C@@H](C(=O)NO)CC4)ccnc2N1 [Compound I-4, (2S)—N-hydroxy-7-[(7-oxo-5,6,7,8-tetrahydro-1,8-naphthyridin-4-yl)oxy]-1,2,3,4-tetrahydronaphthalene-2-carboxamide]	85%
O=C(NO)C1CCc2ccc(OCc3ccncc3)cc2C1 (centres unmarked) [Compound I-5, N-hydroxy-7-(pyridin-4-ylmethoxy)-1,2,3,4-tetrahydronaphthalene-2-carboxamide]	58%
O=C(NO)C1CCc2ccc(OCc3ccccc3)cc2C1 (centres unmarked) [Compound I-6, 7-(benzyloxy)-N-hydroxy-1,2,3,4-tetrahydronaphthalene-2-carboxamide]	53%
CC(C)COc1ccc2c(c1)CC(C(=O)NO)CC2 (centres unmarked) [Compound I-7, N-hydroxy-7-isobutoxy-1,2,3,4-tetrahydronaphthalene-2-carboxamide]	57%
O=C(NO)C1CCc2ccc(Oc3ccccc3)cc2C1 (centres unmarked) [Compound I-8, N-hydroxy-7-phenoxy-1,2,3,4-tetrahydronaphthalene-2-carboxamide]	73%
O=C(NO)C1CCc2ccc(Oc3cccc(Cl)c3)cc2C1 (centres unmarked) [Compound I-9, 7-(3-chlorophenoxy)-N-hydroxy-1,2,3,4-tetrahydronaphthalene-2-carboxamide]	74%
COc1ccc2c(c1)CCC(C(=O)NO)C2 (centres unmarked) [Compound I-10, N-hydroxy-6-methoxy-1,2,3,4-tetrahydronaphthalene-2-carboxamide]	32%
O=C(NO)C1CCc2ccc(Oc3ccc(Cl)cc3)cc2C1 (centres unmarked) [Compound I-11, 7-(4-chlorophenoxy)-N-hydroxy-1,2,3,4-tetrahydronaphthalene-2-carboxamide]	62%
O=C(NO)C1CCc2ccc(Oc3ccncc3)cc2C1 (centres unmarked) [Compound I-12, N-hydroxy-7-(pyridin-4-yloxy)-1,2,3,4-tetrahydronaphthalene-2-carboxamide]	61%
O=C(NO)C1CCc2cc(Oc3ccnc(NC(=O)C4CC4)c3)ccc2C1 (centres unmarked) [Compound I-13, 6-({2-[(cyclopropylcarbonyl)amino]pyridin-4-yl}oxy)-N-hydroxy-1,2,3,4-tetrahydronaphthalene-2-carboxamide]	74%
O=C1CCc2c(Oc3ccc4c(c3)CCC(C(=O)NO)C4)ccnc2N1 (centres unmarked) [Compound I-14, N-hydroxy-6-[(7-oxo-5,6,7,8-tetrahydro-1,8-naphthyridin-4-yl)oxy]-1,2,3,4-tetrahydronaphthalene-2-carboxamide]	67%
COc1cccc2c1CC(C(=O)NO)CC2 (centres unmarked) [Compound I-15, N-hydroxy-8-methoxy-1,2,3,4-tetrahydronaphthalene-2-carboxamide]	25%
O=C(NO)C1CCc2cccc(Oc3ccnc(NC(=O)C4CC4)c3)c2C1 (centres unmarked) [Compound I-16, 8-({2-[(cyclopropylcarbonyl)amino]pyridin-4-yl}oxy)-N-hydroxy-1,2,3,4-tetrahydronaphthalene-2-carboxamide]	13%

Compound	inhibition at 0.412 µM
O=C(NO)C1CCc2ccc(-c3ccncc3)cc2C1 (centres unmarked) [Compound I-17, N-hydroxy-7-pyridin-4-yl-1,2,3,4-tetrahydronaphthalene-2-carboxamide]	60%
CC1(C(=O)Nc2ccc3c(c2)CC(C(=O)NO)CC3)CCNCC1 (centres unmarked) [Compound I-18, N-{7-[(hydroxyamino)carbonyl]-5,6,7,8-tetrahydronaphthalen-2-yl}-4-methylpiperidine-4-carboxamide]	54%
O=C(NO)C1CCc2cc(Oc3cccc(Cl)c3)ccc2C1 (centres unmarked) [Compound I-19, 6-(3-chlorophenoxy)-N-hydroxy-1,2,3,4-tetrahydronaphthalene-2-carboxamide]	23%
CC(C)(C)OC(=O)Nc1ccc2c(c1)CC(C(=O)NO)CC2 (centres unmarked) [Compound I-20, tert-butyl {7-[(hydroxyamino)carbonyl]-5,6,7,8-tetrahydronaphthalen-2-yl}carbamate]	61%
CC(=O)Nc1cccc(Oc2ccc3c(c2)CC(C(=O)NO)CC3)c1 (centres unmarked) [Compound I-21, 7-[3-(acetylamino)phenoxy]-N-hydroxy-1,2,3,4-tetrahydronaphthalene-2-carboxamide]	80%
O=C(NO)C1CCc2ccc(NC(=O)C3CC3)cc2C1 (centres unmarked) [Compound I-22, 7-[(cyclopropylcarbonyl)amino]-N-hydroxy-1,2,3,4-tetrahydronaphthalene-2-carboxamide]	72%
O=C(NO)C1CCc2ccc(Nc3ccccc3)cc2C1 (centres unmarked) [Compound I-23, 7-anilino-N-hydroxy-1,2,3,4-tetrahydronaphthalene-2-carboxamide]	70%
CC(=O)Nc1cccc(-c2ccc3c(c2)CC(C(=O)NO)CC3)c1 (centres unmarked) [Compound I-24, 7-[3-(acetylamino)phenyl]-N-hydroxy-1,2,3,4-tetrahydronaphthalene-2-carboxamide]	86%
O=C(NO)C1CCc2cc(Oc3ccccc3)ccc2C1 (centres unmarked) [Compound I-25, N-hydroxy-6-phenoxy-1,2,3,4-tetrahydronaphthalene-2-carboxamide]	27%
O=C(NO)C1CCc2ccc(Nc3cccc(Cl)c3)cc2C1 (centres unmarked) [Compound I-26, 7-[(3-chlorophenyl)amino]-N-hydroxy-1,2,3,4-tetrahydronaphthalene-2-carboxamide]	71%
O=C(NO)C1CCc2cc(Oc3ccncc3)ccc2C1 (centres unmarked) [Compound I-27, N-hydroxy-6-(pyridin-4-yloxy)-1,2,3,4-tetrahydronaphthalene-2-carboxamide]	53%
O=C(NO)C1CCc2ccc(NS(=O)(=O)c3ccccc3)cc2C1 (centres unmarked) [Compound I-28, N-hydroxy-7-[(phenylsulfonyl)amino]-1,2,3,4-tetrahydronaphthalene-2-carboxamide]	65%
COc1ccc(C(=O)Nc2ccc3c(c2)CC(C(=O)NO)CC3)cc1 (centres unmarked) [Compound I-29, N-hydroxy-7-[(4-methoxybenzoyl)amino]-1,2,3,4-tetrahydronaphthalene-2-carboxamide]	81%
O=C(Nc1ccccc1)Nc1ccc2c(c1)CC(C(=O)NO)CC2 (centres unmarked) [Compound I-30, 7-[(Anilinocarbonyl)amino]-N-hydroxy-1,2,3,4-tetrahydronaphthalene-2-carboxamide]	86%
O=C1CCc2c(Oc3cc4c(cc3F)CCC(C(=O)NO)C4)ccnc2N1 (centres unmarked) [Compound I-31, 6-fluoro-N-hydroxy-7-[(7-oxo-5,6,7,8-tetrahydro-1,8-naphthyridin-4-yl)oxy]-1,2,3,4-tetrahydronaphthalene-2-carboxamide]	79%
O=C(NO)C1CCc2cc(F)c(Oc3ccnc(NC(=O)C4CC4)c3)cc2C1 (centres unmarked) [Compound I-32, 7-({2-[(cyclopropylcarbonyl)amino]pyridin-4-yl}oxy)-6-fluoro-N-hydroxy-1,2,3,4-tetrahydronaphthalene-2-carboxamide]	91%
